Assay results: the supplement of paper PMC13207355

Legend:
Conditions in all cases: exposure time: 72 h
[1] = system: E31 (patient-derived glioblastoma stem cells of proneural subtype); assay: surviving fraction (nuclei count normalised to DMSO); higher = more cells surviving (less toxic)
[2] = system: E21 (patient-derived glioblastoma stem cells of mesenchymal subtype); assay: as above
[3] = system: E28 (patient-derived glioblastoma stem cells of classical subtype); assay: as above
[4] = system: E34 (patient-derived glioblastoma stem cells of proneural subtype); assay: as above
[5] = system: E57 (patient-derived glioblastoma stem cells of mesenchymal subtype); assay: as above
[6] = system: FT3469 (normal neural stem cell line); assay: as above
[7] = system: E13 (patient-derived glioblastoma stem cells of classical subtype); assay: as above
[8] = system: E31; assay: phenotypic distance (Euclidean, principal components) from DMSO controls (arbitrary units); higher = stronger morphological change
[9] = system: E21; assay: as above
[10] = system: E28; assay: as above
[11] = system: E34; assay: as above
[12] = system: E57; assay: as above
[13] = system: FT3469; assay: as above
[14] = system: E13; assay: as above
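For phenotypic distance (Euclidean, principal components) from DMSO controls in this document: cell Painting imaging in 384-well plates, CellProfiler features reduced to at least 20 principal components, Euclidean distance versus same-plate DMSO vehicle wells (0.1% v/v), median over six images per well.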
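For surviving fraction (nuclei count normalised to DMSO) in this document: nuclei counted by high-content imaging of Hoechst-stained cells in laminin-coated 384-well plates, relative to 0.1% DMSO vehicle wells, with staurosporine as cell-death control.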

CC(C)C[C@H](NC(=O)[C@H](CCc1ccccc1)NC(=O)CN1CCOCC1)C(=O)N[C@@H](Cc1ccccc1)C(=O)N[C@@H](CC(C)C)C(=O)[C@@]1(C)CO1 [Carfilzomib]
surviving fraction ([1]; 4.1 nM): 0.0683 | surviving fraction ([1]; 12.3 nM): 0.00163 | surviving fraction ([1]; 37 nM): 0.00651 | surviving fraction ([1]; 111.1 nM): 0.00163 | surviving fraction ([1]; 333.3 nM): 0.00814 | surviving fraction ([1]; 1000 nM): 0.013 | surviving fraction ([1]; 3000 nM): 0.0195 | surviving fraction ([2]; 4.1 nM): 0.281 | surviving fraction ([2]; 12.3 nM): 0.00694 | surviving fraction ([2]; 37 nM): 0.00198 | surviving fraction ([2]; 111.1 nM): 0.000991 | surviving fraction ([2]; 333.3 nM): 0 | surviving fraction ([2]; 1000 nM): 0.00297 | surviving fraction ([2]; 3000 nM): 0.000991 | surviving fraction ([3]; 4.1 nM): 0.177 | surviving fraction ([3]; 12.3 nM): 0.0576 | surviving fraction ([3]; 37 nM): 0.0811 | surviving fraction ([3]; 111.1 nM): 0.0683 | surviving fraction ([3]; 333.3 nM): 0.109 | surviving fraction ([3]; 1000 nM): 0.0768 | surviving fraction ([3]; 3000 nM): 0.16 | surviving fraction ([4]; 4.1 nM): 0.262 | surviving fraction ([4]; 12.3 nM): 0.0542 | surviving fraction ([4]; 37 nM): 0.035 | surviving fraction ([4]; 111.1 nM): 0.0297 | surviving fraction ([4]; 333.3 nM): 0.042 | surviving fraction ([4]; 1000 nM): 0.035 | surviving fraction ([4]; 3000 nM): 0.0455 | surviving fraction ([5]; 4.1 nM): 0.0418 | surviving fraction ([5]; 12.3 nM): 0.00509 | surviving fraction ([5]; 37 nM): 0.00509 | surviving fraction ([5]; 111.1 nM): 0.00305 | surviving fraction ([5]; 333.3 nM): 0.00509 | surviving fraction ([5]; 1000 nM): 0.00407 | surviving fraction ([5]; 3000 nM): 0.00458 | surviving fraction ([6]; 4.1 nM): 0.224 | surviving fraction ([6]; 12.3 nM): 0.158 | surviving fraction ([6]; 37 nM): 0.124 | surviving fraction ([6]; 111.1 nM): 0.095 | surviving fraction ([6]; 333.3 nM): 0.0806 | surviving fraction ([6]; 1000 nM): 0.112 | surviving fraction ([6]; 3000 nM): 0.0863 | surviving fraction ([7]; 4.1 nM): 0.0693 | surviving fraction ([7]; 12.3 nM): 0.000925 | surviving fraction ([7]; 37 nM): 0.00185 | surviving fraction ([7]; 111.1 nM): 0.0037 | surviving fraction ([7]; 333.3 nM): 0.00277 | surviving fraction ([7]; 1000 nM): 0 | surviving fraction ([7]; 3000 nM): 0 | phenotypic distance ([8]; 4.1 nM): 8.54 | phenotypic distance ([8]; 12.3 nM): 12.7 | phenotypic distance ([8]; 37 nM): 11.3 | phenotypic distance ([8]; 111.1 nM): 12.1 | phenotypic distance ([8]; 333.3 nM): 9.53 | phenotypic distance ([8]; 1000 nM): 9.35 | phenotypic distance ([8]; 3000 nM): 8.45 | phenotypic distance ([9]; 4.1 nM): 6.32 | phenotypic distance ([9]; 12.3 nM): 12.1 | phenotypic distance ([9]; 37 nM): 18.5 | phenotypic distance ([9]; 111.1 nM): 17.9 | phenotypic distance ([9]; 333.3 nM): 24 | phenotypic distance ([9]; 1000 nM): 18.7 | phenotypic distance ([9]; 3000 nM): 17.1 | phenotypic distance ([10]; 4.1 nM): 3.34 | phenotypic distance ([10]; 12.3 nM): 5.12 | phenotypic distance ([10]; 37 nM): 6.26 | phenotypic distance ([10]; 111.1 nM): 5.31 | phenotypic distance ([10]; 333.3 nM): 5.36 | phenotypic distance ([10]; 1000 nM): 5.52 | phenotypic distance ([10]; 3000 nM): 5.18 | phenotypic distance ([11]; 4.1 nM): 5.47 | phenotypic distance ([11]; 12.3 nM): 11.7 | phenotypic distance ([11]; 37 nM): 12.5 | phenotypic distance ([11]; 111.1 nM): 13.8 | phenotypic distance ([11]; 333.3 nM): 15.8 | phenotypic distance ([11]; 1000 nM): 14.1 | phenotypic distance ([11]; 3000 nM): 14.9 | phenotypic distance ([12]; 4.1 nM): 12.2 | phenotypic distance ([12]; 12.3 nM): 12.4 | phenotypic distance ([12]; 37 nM): 11.4 | phenotypic distance ([12]; 111.1 nM): 12.8 | phenotypic distance ([12]; 333.3 nM): 8.61 | phenotypic distance ([12]; 1000 nM): 14.1 | phenotypic distance ([12]; 3000 nM): 13.2 | phenotypic distance ([13]; 4.1 nM): 5.32 | phenotypic distance ([13]; 12.3 nM): 7.47 | phenotypic distance ([13]; 37 nM): 7.85 | phenotypic distance ([13]; 111.1 nM): 6.13 | phenotypic distance ([13]; 333.3 nM): 7.43 | phenotypic distance ([13]; 1000 nM): 6.91 | phenotypic distance ([13]; 3000 nM): 7.23 | phenotypic distance ([14]; 4.1 nM): 7.83 | phenotypic distance ([14]; 12.3 nM): 12.9 | phenotypic distance ([14]; 37 nM): 15.6 | phenotypic distance ([14]; 111.1 nM): 16.7 | phenotypic distance ([14]; 333.3 nM): 13.2 | phenotypic distance ([14]; 1000 nM): 18.4 | phenotypic distance ([14]; 3000 nM): 20.8

Clc1ccc(CSC(Cn2ccnc2)c2ccc(Cl)cc2Cl)cc1 (stereo unspecified) [Sulconazole nitrate]
surviving fraction ([1]; 4.1 nM): 0.929 | surviving fraction ([1]; 12.3 nM): 0.922 | surviving fraction ([1]; 37 nM): 1.01 | surviving fraction ([1]; 111.1 nM): 1.02 | surviving fraction ([1]; 333.3 nM): 0.984 | surviving fraction ([1]; 1000 nM): 1.09 | surviving fraction ([1]; 3000 nM): 1.17 | surviving fraction ([2]; 4.1 nM): 0.956 | surviving fraction ([2]; 12.3 nM): 1.01 | surviving fraction ([2]; 37 nM): 1.03 | surviving fraction ([2]; 111.1 nM): 0.956 | surviving fraction ([2]; 333.3 nM): 0.962 | surviving fraction ([2]; 1000 nM): 0.952 | surviving fraction ([2]; 3000 nM): 0.859 | surviving fraction ([3]; 4.1 nM): 0.969 | surviving fraction ([3]; 12.3 nM): 0.978 | surviving fraction ([3]; 37 nM): 0.902 | surviving fraction ([3]; 111.1 nM): 0.886 | surviving fraction ([3]; 333.3 nM): 0.956 | surviving fraction ([3]; 1000 nM): 0.917 | surviving fraction ([3]; 3000 nM): 0.839 | surviving fraction ([4]; 4.1 nM): 0.824 | surviving fraction ([4]; 12.3 nM): 1.02 | surviving fraction ([4]; 37 nM): 0.954 | surviving fraction ([4]; 111.1 nM): 0.957 | surviving fraction ([4]; 333.3 nM): 0.909 | surviving fraction ([4]; 1000 nM): 0.932 | surviving fraction ([4]; 3000 nM): 0.766 | surviving fraction ([5]; 4.1 nM): 0.975 | surviving fraction ([5]; 12.3 nM): 0.945 | surviving fraction ([5]; 37 nM): 0.995 | surviving fraction ([5]; 111.1 nM): 0.972 | surviving fraction ([5]; 333.3 nM): 1.07 | surviving fraction ([5]; 1000 nM): 1.03 | surviving fraction ([5]; 3000 nM): 0.934 | surviving fraction ([6]; 4.1 nM): 0.831 | surviving fraction ([6]; 12.3 nM): 1.03 | surviving fraction ([6]; 37 nM): 0.945 | surviving fraction ([6]; 111.1 nM): 0.801 | surviving fraction ([6]; 333.3 nM): 0.934 | surviving fraction ([6]; 1000 nM): 0.869 | surviving fraction ([6]; 3000 nM): 0.734 | surviving fraction ([7]; 4.1 nM): 0.897 | surviving fraction ([7]; 12.3 nM): 0.833 | surviving fraction ([7]; 37 nM): 0.964 | surviving fraction ([7]; 111.1 nM): 0.887 | surviving fraction ([7]; 333.3 nM): 0.841 | surviving fraction ([7]; 1000 nM): 0.82 | surviving fraction ([7]; 3000 nM): 0.799 | phenotypic distance ([8]; 4.1 nM): 0.532 | phenotypic distance ([8]; 12.3 nM): 0.425 | phenotypic distance ([8]; 37 nM): 0.596 | phenotypic distance ([8]; 111.1 nM): 0.731 | phenotypic distance ([8]; 333.3 nM): 1.14 | phenotypic distance ([8]; 1000 nM): 1.17 | phenotypic distance ([8]; 3000 nM): 1.4 | phenotypic distance ([9]; 4.1 nM): 0.971 | phenotypic distance ([9]; 12.3 nM): 4.31 | phenotypic distance ([9]; 37 nM): 0.531 | phenotypic distance ([9]; 111.1 nM): 0.857 | phenotypic distance ([9]; 333.3 nM): 1.11 | phenotypic distance ([9]; 1000 nM): 0.859 | phenotypic distance ([9]; 3000 nM): 1.68 | phenotypic distance ([10]; 4.1 nM): 0.745 | phenotypic distance ([10]; 12.3 nM): 0.557 | phenotypic distance ([10]; 37 nM): 0.545 | phenotypic distance ([10]; 111.1 nM): 0.553 | phenotypic distance ([10]; 333.3 nM): 0.469 | phenotypic distance ([10]; 1000 nM): 0.567 | phenotypic distance ([10]; 3000 nM): 0.697 | phenotypic distance ([11]; 4.1 nM): 1.17 | phenotypic distance ([11]; 12.3 nM): 0.4 | phenotypic distance ([11]; 37 nM): 0.413 | phenotypic distance ([11]; 111.1 nM): 0.586 | phenotypic distance ([11]; 333.3 nM): 0.864 | phenotypic distance ([11]; 1000 nM): 0.895 | phenotypic distance ([11]; 3000 nM): 1.02 | phenotypic distance ([12]; 4.1 nM): 0.709 | phenotypic distance ([12]; 12.3 nM): 0.952 | phenotypic distance ([12]; 37 nM): 0.398 | phenotypic distance ([12]; 111.1 nM): 0.55 | phenotypic distance ([12]; 333.3 nM): 0.671 | phenotypic distance ([12]; 1000 nM): 0.779 | phenotypic distance ([12]; 3000 nM): 1.99 | phenotypic distance ([13]; 4.1 nM): 0.821 | phenotypic distance ([13]; 12.3 nM): 0.617 | phenotypic distance ([13]; 37 nM): 0.893 | phenotypic distance ([13]; 111.1 nM): 0.999 | phenotypic distance ([13]; 333.3 nM): 1.06 | phenotypic distance ([13]; 1000 nM): 0.92 | phenotypic distance ([13]; 3000 nM): 1.39 | phenotypic distance ([14]; 4.1 nM): 0.507 | phenotypic distance ([14]; 12.3 nM): 0.659 | phenotypic distance ([14]; 37 nM): 0.68 | phenotypic distance ([14]; 111.1 nM): 0.822 | phenotypic distance ([14]; 333.3 nM): 1.02 | phenotypic distance ([14]; 1000 nM): 1.17 | phenotypic distance ([14]; 3000 nM): 0.957
